2 compounds from US4465681A, “Bis-(aminoalkoxy)-phenyl, pyridyl ketones, and use as immunological agents” (Yoshitomi Pharmaceutical Industries Ltd., priority 1980, dated 1984) can be followed below.

For data set [1], the system named is plaque-forming cells (PFC) in the spleen. Briefly: Activity for suppressing immune response in BALB/C strain mice: plaque-forming cells (PFC). Type of data set: in vivo, female BALB/C strain mice. To be noted: 30 mg/kg orally, same and next day of sensitization; 4 days after sensitization; control 17.4 ± 2.3 (for A), 9.5 ± 1.0 (for B); **p < 0.01 vs control. As to the method: (§1) Female BALB/C strain mice (6 weeks old) were used by dividing into groups of 6 animals. The sensitization was made by intraperitoneal injection of antigen: 5×10^8 sheep red blood cells. Each mouse was orally administered with the test compound on the same day and the next day of the sensitization. Four days after the sensitization, the number of plaque-forming cells (PFC) in the spleen, and the number of rosette-forming cells (RFC) in the spleen and/or thymus were measured in a usual manner.

Another data set has as its system peritoneal macrophages. As to the kind of experiment: Activation of peritoneal macrophage in mice (phagocytosis of yeast). Type of data set: cell-based, male dd mice. The settings on record: 0 μM control 33.9 ± 0.8. As for the experimental part:
Peritoneal macrophages were obtained from male dd mice (8 weeks old). After washing macrophages, the cells were adjusted to 5×10^6 macrophages/ml in Hanks' solution. A mixture containing 100 μl of the macrophage suspension, 50 μl of mice serum and 10 μl of the test compound was preincubated at 37° C. for 10 minutes, and then 50 μl of yeast cells (2.5×10^8 /ml) was added thereto. After further incubation of the mixture at 37° C. for 20 minutes, the number of macrophages phagocytosing yeast was counted in a usual manner.

The subject of another data set is adjuvant arthritis. As to the kind of experiment: Anti-adjuvant arthritis activity in rats. Type of data set: in vivo, male Lewis rats. As to the method: (A model disease of rheumatoid arthritis) Male Lewis rats (8-9 weeks old) were used. Adjuvant arthritis was caused by the method described by B. B. Newbould in "Brit. J. Pharmacol.", 21, 127 (1963). Twenty-one days after the subcutaneous injection of a suspension of killed tubercle bacillus in Freund's adjuvant into the tail of the rats, the severity of arthritis was assayed as the hindleg volume. Each group of the rat was orally administered with the test compound once a day.

Data set [2] deals with rosette-forming cells (RFC) in the spleen and/or thymus. As to the kind of experiment: Activity for suppressing immune response in BALB/C strain mice: rosette-forming cells (RFC). Type of data set: in vivo, female BALB/C strain mice. To be noted: 30 mg/kg orally, 4 days after sensitization; for No. of RFC, Spleen: control 135 ± 27 (for A), 172 ± 32 (for B), B **p < 0.01 vs control. As for the experimental part: as §1

The test system is the same in data set [3]. Briefly: Activity for potentiating immune response in C57BL/6 strain mice: rosette-forming cells (RFC). Type of data set: in vivo, female C57BL/6 strain mice. The settings on record: 30 mg/kg orally, 6 days after sensitization; for No. of RFC, Spleen: control 75 ± 17 (for A), 55 ± 11 (for B), **p < 0.01 vs control. As for the experimental part:
Female C57BL/6 strain mice (6 weeks old) were used dividing into groups of 6 animals. The sensitization was made by intraperitoneal injection of antigen: 5×10^8 sheep red blood cells. Each mouse was orally administered with the test compound on the same day and next day of the sensitization. Six days after the sensitization, the number of rosette-forming cells (RFC) in the spleen and/or thymus was measured in a usual manner.

A further data set can be described thus: Acute toxicity. Type of data set: in vivo. To be noted: mouse, in vivo. As to the method: (§2) Acute toxicity was determined using male dd mice (8 weeks old).
The next data set concerns male dd mice. As to the kind of experiment: Acute toxicity. The settings on record: p.o.; printed beside LD50 >1000 mg/kg. Type of data set: in vivo. As for the experimental part:
as §2

Entries after “also recorded” stand apart in the source; their conditions may differ. Where a name gives a salt, the structure may show the parent alone.

For the compound `CN(C)CCOc1ccc(C(=O)c2cccnc2OCCN(C)C)cc1` [Test compound A, 2,4'-bis(2-dimethylaminoethoxy)-3-benzoylpyridine dihydrochloride hemihydrate], the “No. of PFC, Spleen” value in data set [1] is reported as 9.0 ± 1.4 × 10^4. The Phagocytosis in the data set with peritoneal macrophages (10 μM) is 35.5 ± 1.9%; in the data set with peritoneal macrophages (30 μM, **p < 0.01 vs control), 46.5 ± 2.7%; with peritoneal macrophages (100 μM, **p < 0.01 vs control), 54.3 ± 3.1%. In addition, the “Volume of Hindleg” value in the data set on adjuvant arthritis (50 mg/kg orally once a day, twenty-one days after adjuvant injection, control 2.40 ± 0.20, **p < 0.01 vs control) turned out to be 1.17 ± 0.29 mL. Moreover, the “anti-adjuvant arthritis activity (in words)” value with adjuvant arthritis (dose of 50 mg/kg, dihydrochloride hemihydrate, 50 mg/kg) is “significant inhibition of adjuvant arthritis; also recorded: has anti-arthritis activity”. The “No. of RFC, Thymus” value was 1.2 ± 0.4 × 10^4 in data set [2] (control 9.5 ± 1.0, **p < 0.01 vs control) and 7.4 ± 1.1 × 10^4 in data set [3] (control 2.8 ± 0.5, **p < 0.01 vs control). Besides, the “No. of RFC, Spleen” value in data set [2] was 126 ± 24 × 10^4; in data set [3], 214 ± 46 × 10^4. The values for the LD50 in “Acute toxicity” (ip) and in “Acute toxicity” (po) were 300 mg/kg and over 1000 mg/kg, respectively. Further, the dead/total animals in the data set with male dd mice is reported as 1/6.
Turning to `CC(CN(C)C)Oc1ccc(C(=O)c2cccnc2OC(C)CN(C)C)cc1` (stereo not shown) [Test compound B, 2,4'-bis(1-methyl-2-dimethylaminoethoxy)-3-benzoylpyridine dioxalate], the “No. of PFC, Spleen” value in data set [1] is recorded as 4.6 ± 0.8 × 10^4. The Phagocytosis stood at 40.8 ± 2.7% in the data set with peritoneal macrophages (10 μM); 49.6 ± 2.1% in the data set on peritoneal macrophages (30 μM, **p < 0.01 vs control); 63.4 ± 6.7% in the data set on peritoneal macrophages (100 μM, **p < 0.01 vs control). For the same compound, the “No. of RFC, Spleen” value in data set [2] is reported as 88 ± 10 × 10^4; in data set [3] it was 149 ± 22 × 10^4. For the same compound, the LD50 in “Acute toxicity” (ip) was 250 mg/kg; in “Acute toxicity” (po), over 1000 mg/kg. Moreover, in the data set with male dd mice, the dead/total animals is 0/5.

Usually LD50 stands for the dose at which mortality reaches 50%. Low values mean greater toxicity, high ones lower toxicity.
